Patent publication US4432973A, “Benzoyl- and α-hydroxybenzyl-phenyl-glycosides and application thereof in therapeutics” (Societe de Recherches Industrielles (S.O.R.I.), priority 1980, dated 1984)

Legend:
[1] = Acute toxicity in the mouse by the I.P. route; assay type: in vivo; conditions: for LD50: read-out: DL-50 (lethal dose involving the death of half of the animals)
Source text: The acute toxicity was studied in the mouse by the I.P. route. It is expressed in the form of DL-50 (lethal dose involving the death of half of the animals) or DL-0 (maximum non-lethal dose).

[2] = Anti-ulcer activity: ulcer caused by aspirin; assay type: in vivo, rat (male Wistar); conditions: 100 mg/kg I.P.; aspirin 192 mg/kg per os; standardised to control batch and cimetidine (index 1)
Method: The experiment is carried out on male Wistar rats of 180 to 200 g. The products to be tested are administered at 100 mg/kg I.P. (unless indicated to the contrary in Table IV).
At t=0, the rats are made to fast and a first administration of the product to be tested is made.
At t=18 hours, 2 ml of an ulcer-forming suspension with 192 mg of aspirin/kg are administered per os then a second administration of the product to be tested is made.
At t=22 hours, the animals are sacrificed and the ulcers are marked as follows: small point-like ulcers: mark 1 more extensive ulcers: mark 3 highly extensive or very deep ulcers: mark 9
This marking is standardised with respect to a control batch and to cimetidine (a reference product) to which index 1 has been allocated.

[3] = Anti-hypoxic activity: survival to hypoxia (nitrogen-oxygen 95:5); assay type: in vivo, mouse (Swiss male); conditions: I.P., 1/10th of LD-50 or 100 mg/kg when LD-0 ≥ 800 mg/kg; up to 15 minutes; mouse
Method: The experiment is carried out on batches of 20 Swiss male mice weighing from 20 to 30 g. Each product to be tested is administered to the mice by intraperitoneal route at a dose corresponding to 1/10th of the LD-50 or at a dose of 100 mg/kg when the LD-0 is higher than or equal to 800 mg/kg. The mice are placed in a nitrogen-oxygen (95:5) v/v atmosphere. The survival time of the mice is then measured up to 15 minutes maximum.
The results shown in Table VII are expressed in percentage of survival with respect to a non-treated control batch and a batch treated with an anti-hypoxic reference product [specialty known under the trade name of "Duxil" and which is constituted by a mixture of Almitrine bis-methanesulfonate and of Raubasine in the weight ratio 3:1], the anti-hypoxic reference product being administered at the dose of 18 mg/kg I.P.

## COC(=S)Nc1ccc(C(=O)c2ccc(O[C@@H]3OC[C@@H](O)[C@H](O)[C@H]3O)cc2)cc1 [Example 65]
[1]; I.P.
  DL-0 (maximum non-lethal dose): > 800 mg/kg IP

## Cc1cc(O)ccc1C(=O)c1cc(C)c(O[C@@H]2O[C@H](CO)[C@@H](O)[C@H](O)[C@H]2O)c(C)c1 [Example 27]
[1]; I.P.
  DL-0 (maximum non-lethal dose): > 800 mg/kg IP
[2]
  Ulcer index: 0.42

## Cc1cc(C)c(C(=O)c2ccc(O[C@@H]3OC[C@@H](O)[C@H](O)[C@H]3O)cc2)c(C)c1 [Example 32]
[1]; I.P.
  DL-0 (maximum non-lethal dose): > 800 mg/kg IP
[2]
  Ulcer index: 0.54

## CC(=O)N[C@H]1[C@H](Oc2ccc(C(O)c3ccc(Cl)cc3)cc2)O[C@H](CO)[C@@H](O)[C@@H]1O (stereo partly shown) [Example 100]
[3]
  Survival (survival percentage to hypoxic aggression): ++ (from 50 to 79%)
[1]; in vivo, ip
  DL-0 (maximum non-lethal dose): > 800 mg/kg IP
[2]
  Ulcer index: 0.35

## O=C(c1ccc(O[C@@H]2OC[C@@H](OS(=O)(=O)O)[C@H](OS(=O)(=O)O)[C@H]2OS(=O)(=O)O)cc1)c1cccc([N+](=O)[O-])c1 [Example 72]
[1]; in vivo, ip, I.P.
  LD50: 650 mg/kg
[2]
  Ulcer index: 0.47

## O=C(c1ccc(Cl)cc1)c1cccc(O[C@@H]2OC[C@@H](O)[C@H](O)[C@H]2O)c1 [Example 48]
[1]; in vivo, ip, I.P.
  LD50: 220 mg/kg
[2]
  Ulcer index: 0.75

## CC(=O)N[C@H]1[C@H](Oc2c(C)cc(C(=O)c3ccccc3C)cc2C)O[C@H](COS(=O)(=O)O)[C@@H](OS(=O)(=O)O)[C@@H]1OS(=O)(=O)O [Example 68]
[1]; I.P.
  DL-0 (maximum non-lethal dose): > 800 mg/kg IP

## O=C(c1ccc(Cl)cc1)c1ccc(O[C@@H]2O[C@H](CO)[C@@H](O)[C@H](O)[C@H]2O)cc1 [Example 124]
[3]
  Survival (survival percentage to hypoxic aggression): + (from 30 to 49%)
[1]; in vivo, ip
  DL-0 (maximum non-lethal dose): > 800 mg/kg IP

## COc1cccc(C(=O)c2ccc(O[C@@H]3OC[C@@H](O)[C@H](O)[C@H]3O)cc2)c1 [Example 16]
[3]
  Survival (survival percentage to hypoxic aggression): + (from 30 to 49%)
[1]; in vivo, ip
  DL-0 (maximum non-lethal dose): > 800 mg/kg IP
[2]
  Ulcer index: 0.73

## O=C(c1ccccc1)c1ccc(O[C@@H]2O[C@H](CO)[C@@H](O)[C@H](O)[C@H]2O)cc1 [Example 126]
[3]
  Survival (survival percentage to hypoxic aggression): + (from 30 to 49%)
[1]; in vivo, ip
  DL-0 (maximum non-lethal dose): > 800 mg/kg IP

## CC(=O)N[C@H]1[C@H](Oc2ccc(C(O)c3ccc(C)cc3)cc2)O[C@H](CO)[C@@H](O)[C@@H]1O (stereo partly shown) [Example 128]
[3]
  Survival (survival percentage to hypoxic aggression): ++ (from 50 to 79%)
[1]; in vivo, ip
  DL-0 (maximum non-lethal dose): > 800 mg/kg IP

## Cc1ccc(C(=O)c2ccc(O[C@@H]3O[C@H](CO)[C@@H](O)[C@H](O)[C@H]3O)cc2)cc1 [Example 127]
[3]
  Survival (survival percentage to hypoxic aggression): ++ (from 50 to 79%)
[1]; in vivo, ip, I.P.
  LD50: 700 mg/kg

## CC(=O)O[C@@H]1[C@@H](OC(C)=O)[C@H](Oc2cccc(C(=O)c3ccc(Cl)cc3)c2)OC[C@H]1OC(C)=O [Example 82]
[1]; I.P.
  DL-0 (maximum non-lethal dose): > 800 mg/kg IP

## CC(=O)N[C@H]1[C@H](Oc2ccc(C(=O)c3ccc([N+](=O)[O-])cc3)cc2)O[C@H](CO)[C@@H](O)[C@@H]1O [Example 44, [4-(4-nitrobenzoyl)-phenyl]-2-(N-acetyl)-β-D-glucosaminide]
[3]
  Survival (survival percentage to hypoxic aggression): +++ (higher than or equal to 80%)
[1]; in vivo, ip
  DL-0 (maximum non-lethal dose): > 800 mg/kg IP
[2]
  Ulcer index: 0.385

## CC(=O)N[C@H]1[C@H](Oc2ccc(C(=O)c3ccccc3Cl)cc2)O[C@H](CO)[C@@H](O)[C@@H]1O [Example 120]
[3]
  Survival (survival percentage to hypoxic aggression): +++ (higher than or equal to 80%)
[1]; in vivo, ip
  DL-0 (maximum non-lethal dose): > 800 mg/kg IP

## CC(=O)O[C@@H]1[C@@H](OC(C)=O)[C@H](Oc2ccc(C(=O)c3ccc(Cl)cc3Cl)cc2)OC[C@H]1OC(C)=O [Example 74]
[1]; I.P.
  DL-0 (maximum non-lethal dose): > 800 mg/kg IP
[2]
  Ulcer index: 0.91

## Cc1ccccc1C(=O)c1cccc(O[C@@H]2OC[C@@H](O)[C@H](O)[C@H]2O)c1 [Example 52]
[1]; I.P.
  DL-0 (maximum non-lethal dose): > 800 mg/kg IP

## COc1cc(C(=O)c2ccc(O[C@@H]3OC[C@@H](O)[C@H](O)[C@H]3O)cc2)cc(OC)c1OC [Example 33]
[1]; I.P.
  DL-0 (maximum non-lethal dose): > 800 mg/kg IP
[2]
  Ulcer index: 0.46

## Cc1ccc(C(=O)c2cccc(O[C@@H]3OC[C@@H](O)[C@H](O)[C@H]3O)c2)cc1 [Example 49]
[1]; I.P.
  DL-0 (maximum non-lethal dose): > 800 mg/kg IP
[2]
  Ulcer index: 1.21

## CC(=O)O[C@@H]1[C@@H](OC(C)=O)[C@H](Oc2cccc(C(=O)c3ccccc3)c2)OC[C@H]1OC(C)=O [Example 83]
[3]
  Survival (survival percentage to hypoxic aggression): ++ (from 50 to 79%)
[1]; in vivo, ip
  DL-0 (maximum non-lethal dose): > 800 mg/kg IP

## CC(=O)O[C@@H]1[C@@H](OC(C)=O)[C@H](Oc2ccc(C(=O)c3ccccc3[N+](=O)[O-])cc2)OC[C@H]1OC(C)=O [Example 78]
[1]; I.P.
  DL-0 (maximum non-lethal dose): > 800 mg/kg IP

## CC(=O)O[C@@H]1[C@@H](OC(C)=O)[C@H](Oc2ccc(C(=O)c3cccc([N+](=O)[O-])c3)cc2)OC[C@H]1OC(C)=O [Example 80]
[1]; I.P.
  DL-0 (maximum non-lethal dose): > 800 mg/kg IP
[2]
  Ulcer index: 1.00

## OC(c1ccc(Br)cc1)c1ccc(O[C@@H]2OC[C@@H](O)[C@H](O)[C@H]2O)cc1 (stereo partly shown) [Example 95]
[1]; I.P.
  DL-0 (maximum non-lethal dose): > 800 mg/kg IP
[2]
  Ulcer index: 0.52

## O=C(c1ccc(C(F)(F)F)cc1)c1cccc(O[C@@H]2OC[C@@H](O)[C@H](O)[C@H]2O)c1 [Example 53, [3-(4-trifluoromethylbenzoyl)-phenyl]-β-D-xylopyranoside]
[1]; in vivo, ip, I.P.
  LD50: 550 mg/kg
[2]
  Ulcer index: 0.64

## COc1cc(C(=O)c2ccc(O[C@@H]3OC[C@@H](OC(C)=O)[C@H](OC(C)=O)[C@H]3OC(C)=O)cc2)cc(OC)c1O [Example 84]
[1]; I.P.
  DL-0 (maximum non-lethal dose): > 800 mg/kg IP

## O=C(c1ccc(O[C@@H]2O[C@H](CO)[C@H](O)[C@H](O)[C@H]2O)cc1)c1ccc([N+](=O)[O-])cc1 [Example 20]
[1]; I.P.
  DL-0 (maximum non-lethal dose): > 800 mg/kg IP
[2]
  Ulcer index: 0.62

## CC(=O)O[C@@H]1[C@@H](OC(C)=O)[C@H](Oc2ccc(C(=O)c3ccc(N=C=S)cc3)cc2)OC[C@H]1OC(C)=O [Example 42]
[1]; I.P.
  DL-0 (maximum non-lethal dose): > 800 mg/kg IP

## Cc1ccc(C(O)c2ccc(O[C@@H]3OC[C@@H](O)[C@H](O)[C@H]3O)cc2)cc1 (stereo partly shown) [Example 90]
[1]; I.P.
  DL-0 (maximum non-lethal dose): > 800 mg/kg IP
[2]
  Ulcer index: 0.57

## CC(=O)N[C@H]1[C@H](Oc2c(C)cc(C(=O)c3c(C)cccc3C)cc2C)O[C@H](CO)[C@@H](O)[C@@H]1O [Example 37]
[1]; in vivo, ip, I.P.
  LD50: 600 mg/kg
[2]
  Ulcer index: 1.02

## O=C(c1ccc(O[C@@H]2OC[C@@H](O)[C@H](O)[C@H]2O)cc1)c1ccc(Cl)cc1Cl [Example 31]
[1]; I.P.
  DL-0 (maximum non-lethal dose): > 800 mg/kg IP
[2]
  Ulcer index: 1.04

## CC(=O)O[C@@H]1[C@@H](OC(C)=O)[C@H](Oc2ccc(C(=O)c3c(C)cc(C)cc3C)cc2)OC[C@H]1OC(C)=O [Example 73]
[1]; I.P.
  DL-0 (maximum non-lethal dose): > 800 mg/kg IP
[2]
  Ulcer index: 0.52

## Cc1cc(C(=O)c2ccc(Cl)cc2)ccc1O[C@@H]1OC[C@@H](O)[C@H](O)[C@H]1O [Example 28]
[3]
  Survival (survival percentage to hypoxic aggression): ++ (from 50 to 79%)
[1]; in vivo, ip
  DL-0 (maximum non-lethal dose): > 800 mg/kg IP

## Cc1cc(C(=O)c2ccc(Cl)cc2)cc(C)c1O[C@@H]1OC[C@@H](O)[C@H](O)[C@H]1O [Example 22]
[1]; in vivo, ip, I.P.
  LD50: 500 mg/kg
[2]
  Ulcer index: 1.46

## O=[N+]([O-])c1ccc(C(O)c2ccc(O[C@@H]3O[C@H](CO)[C@@H](O)[C@H](O)[C@H]3O)cc2)cc1 (stereo partly shown) [Example 129]
[1]; I.P.
  DL-0 (maximum non-lethal dose): > 800 mg/kg IP

## OC(c1ccc(O[C@@H]2OC[C@@H](O)[C@H](O)[C@H]2O)cc1)c1cccc(C(F)(F)F)c1 (stereo partly shown) [Example 93]
[1]; I.P.
  DL-0 (maximum non-lethal dose): > 800 mg/kg IP

## Cc1ccc(C(O)c2cccc(O[C@@H]3OC[C@@H](O)[C@H](O)[C@H]3O)c2)cc1 (single isomer, unassigned) [Example 107]
[1]; I.P.
  DL-50 (lethal dose involving the death of half of the animals): 550 mg/kg IP

## Cc1cc(C(=O)c2ccccc2)cc([N+](=O)[O-])c1O[C@@H]1OC[C@@H](O)[C@H](O)[C@H]1O [Example 25]
[1]; in vivo, ip, I.P.
  LD50: 330 mg/kg
[2]
  Ulcer index: 0.54
